Assay results taken from paper PMC4610302 (Journal of Medicinal Chemistry, 2015).

What was measured:
[1] = molecular target: purified full-length human ERβ (Homo sapiens, UniProt Q92731); experiment: biochemical
[2] = test system: OTUB2 gene in cells with only ERα; conditions: MCF-7 cells with only ERα, qPCR, 24 h
[3] = molecular target: hERβ (Homo sapiens, UniProt Q92731); conditions: HEC-1 reporter assay

| Ki [1] | Reduction in potency on ERβ compared to 2a [3] | Compound | Stimulation of OTUB2 in cells with only ERα [2] |
| --- | --- | --- | --- |
| 1.1 nM |  | C/C(=N\O)c1cc(-c2ccc(O)cc2)ccc1O [2a, (E)-1-(6-Hydroxy-3-(4-hydroxyphenyl)phenyl)ethanone Oxime] | no stimulation |
|  | ~4 fold | C/C(=N\O)c1cc(-c2ccc(O)c(F)c2)ccc1O [2c, (E)-1-(6-Hydroxy-3-(3-fluoro-4-hydroxyphenyl)phenyl)ethanone Oxime] | no stimulation |
